Laboratory results from PubChem BioAssay (NCI).
Where “and” joins values, the source holds several entries; their conditions need not be identical. Equal entries are not always repeated.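 Five concentrations, 48 hours, 96-well plates. The concentration for 50% growth inhibition is given as GI50. TGI: total growth inhibition.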

Experiments:
Test in all cases: NCI tumour cell line growth inhibition, 48 h
HCT-15 colon = test system: HCT-15 colon
HCC-2998 colon = test system: HCC-2998 colon
NCI-H460 lung = test system: NCI-H460 lung
MCF7 breast = test system: MCF7 breast
RPMI-8226 leukemia = test system: RPMI-8226 leukemia
HCT-116 colon = test system: HCT-116 colon
RXF 393 renal = test system: RXF 393 renal
SN12C renal = test system: SN12C renal
SNB-19 CNS = test system: SNB-19 CNS
SNB-75 CNS = test system: SNB-75 CNS

| SMILES | GI50 (HCT-15 colon) | TGI (HCT-15 colon) | GI50 (HCC-2998 colon) | TGI (HCC-2998 colon) | GI50 (NCI-H460 lung) | TGI (NCI-H460 lung) | GI50 (MCF7 breast) | TGI (MCF7 breast) | GI50 (RPMI-8226 leukemia) | TGI (RPMI-8226 leukemia) | GI50 (HCT-116 colon) | TGI (HCT-116 colon) | GI50 (RXF 393 renal) | TGI (RXF 393 renal) | GI50 (SN12C renal) | TGI (SN12C renal) | GI50 (SNB-19 CNS) | TGI (SNB-19 CNS) | TGI (SNB-75 CNS) | GI50 (SNB-75 CNS) |
| --- | --- | --- | --- | --- | --- | --- | --- | --- | --- | --- | --- | --- | --- | --- | --- | --- | --- | --- | --- | --- |
| COc1ccc(Cn2cc(COc3cc(/C=C/C(=O)c4cc(OC)c(OC)c(OC)c4)ccc3OC)nn2)cc1 | 2.76 µM | > 100 µM | 3.9 µM | > 100 µM | 4.39 µM | 40.4 µM | 3.15 µM | > 100 µM | 2.58 µM | 29.6 µM | 3.36 µM | > 100 µM | 2.29 µM | 6.88 µM | 3.62 µM | > 100 µM | 5.99 µM | > 100 µM | – | – |
| Cc1ccc(N(C=O)c2c([N+](=O)[O-])cc([N+](=O)[O-])c3c2=[N+]([O-])CN=3)cc1 | – | 34.8 µM | – | 43.3 µM | – | > 100 µM | – | 57.7 µM | – | 69.2 µM | – | 67.4 µM | – | 42 µM | – | > 100 µM | – | > 100 µM | 95.2 µM | – |
| Cc1ccc(N)cc1[As]=[As]c1cc(N)ccc1C (stereo unspecified) | 0.75 µM | 2.24 µM | 1.93 µM | 3.58 µM | 3.08 µM | 12.2 µM | 0.537 µM | 2.75 µM | 1.07 µM | 4.45 µM | 1.64 µM | 3.15 µM | 1.19 µM | 2.47 µM | 1.4 µM | 2.88 µM | 1.68 µM | 3.24 µM | 2.59 µM | 1.27 µM |
| CC1=CC(=O)N(c2cccc3c(N4C(=O)C=C(C)C4=O)cccc23)C1=O | 2.67 µM | 10.2 µM | 18.4 µM | 34.3 µM | 19.5 µM | 47.7 µM | 3.95 µM | 23.5 µM | 3.71 µM | 19 µM | 1.79 µM | 4.16 µM | 1.96 µM | 4.4 µM | 8.62 µM | 26.5 µM | 53.3 µM | > 100 µM | > 100 µM | 28.1 µM |
| Cc1sc(C(=O)c2cncnc2N[C@@H]2C[C@H](COS(N)(=O)=O)[C@@H](O)C2)cc1[C@@H]1NCCc2ccc(Cl)cc21 | 6.64 µM | 21.1 µM | 0.922 µM | 19.9 µM | 0.466 µM | 20.6 µM | 0.0138 µM | 17.3 µM | 2.01 µM | 22.2 µM | 1.31 µM | 22.6 µM | 6.35 µM | 22 µM | 9.85 µM | 24.5 µM | 14.8 µM | 28.8 µM | 20.1 µM | 1.65 µM |
| Cn1ncc(C#N)c1-c1ccc2c(c1)CN([C@H](CN)Cc1cccc(F)c1)C2=O | 15.9 µM | > 100 µM | 5.96 µM | > 100 µM | 0.752 µM | > 100 µM | 0.812 µM | 25.4 µM | 2.34 µM | 18.3 µM | 12.9 µM | 28.7 µM | 0.172 µM | 2.43 µM | 19.7 µM | > 100 µM | 1.15 µM | > 55.3 µM | 3.09 µM | 0.0925 µM |
| c1ccc(-c2[nH]ncc2-c2ccnc(-c3ccc(OCCN4CCOCC4)cc3)c2)nc1 | > 25 µM | > 25 µM | > 25 µM | > 25 µM | > 25 µM | > 25 µM | > 25 µM | > 25 µM | > 25 µM | > 25 µM | > 25 µM | > 25 µM | > 25 µM | > 25 µM | > 25 µM | > 25 µM | > 25 µM | > 25 µM | > 25 µM | > 25 µM |
| C=C1C(=O)O[C@H]2[C@H]1CC/C(COC(=O)c1cccnc1N)=C\CC[C@@]1(C)O[C@@H]21 | 2.34 µM | 9.79 µM | 4.43 µM | 16.2 µM | 3.09 µM | 10.8 µM | 0.553 µM | 14.6 µM | 0.365 µM | 2.54 µM | 0.36 µM | 1.26 µM | 1.53 µM | 3.78 µM | 2.01 µM | 10.9 µM | 8.65 µM | 28.5 µM | 17.8 µM | 3.16 µM |
| CNC(=O)ON(C(C)=O)C(=O)NC | > 76.4 µM | 109 µM | – | 272 µM | – | 220 µM | – | 154 µM | 41.4 µM and 25.2 µM | > 77.2 µM and 111 µM | – | 136 µM | – | 107 µM | – | 166 µM | – | 359 µM | 182 µM | – |
| Cc1ccc(/C=N/NC(=O)c2ccccc2Oc2ccccc2)o1 | 37.9 µM | > 100 µM | 65.3 µM | > 100 µM | 44.4 µM | > 100 µM | 32.9 µM | > 100 µM | 23.8 µM | > 88.4 µM | 48.8 µM | > 100 µM | 35.6 µM | > 100 µM | 32.9 µM | > 100 µM | 48.4 µM | > 100 µM | > 100 µM | 12.8 µM |
| CN1CCN(CCCNC(=O)c2c3c(n4ccccc24)C(=O)c2ncccc2C3=O)CC1 | 1.25 µM | 8.47 µM | 1.04 µM | 4.07 µM | 0.316 µM | 1.75 µM | 0.612 µM | 2.62 µM | 3.02 µM | > 24.4 µM | 0.632 µM | 4.93 µM | 1.52 µM | 10.4 µM | 1.42 µM | 3.61 µM | 1.35 µM | 6.09 µM | 16.3 µM | 3.92 µM |
| COc1ccc2c(c1)C(=Nc1ccc(F)c(Cl)c1)c1c-2c(Nc2ccc(F)c(Cl)c2)nc2ccccc12 | > 71.3 µM | > 100 µM | > 100 µM | > 100 µM | > 100 µM | > 100 µM | 56.2 µM | > 100 µM | > 60.4 µM | > 100 µM | 27.8 µM | > 100 µM | 0.579 µM | 37.1 µM | 33.8 µM | > 67 µM | 44.8 µM | > 100 µM | – | – |
| COC(=O)C1C(C(=O)O)C2(c3ccccc3)C(=O)C1(c1ccccc1)C(c1ccccc1)=C2c1ccccc1 (stereo unspecified) | 32.5 µM | > 100 µM | 15.7 µM | 29.6 µM | 13.6 µM | 29.1 µM | 19.6 µM | 37.6 µM | 15.7 µM | 45.7 µM | 19.6 µM | 35.2 µM | 16.8 µM | 36.3 µM | 18 µM | 38.9 µM | 11.7 µM | 29.5 µM | – | – |
